Measurements reported in ChEMBL document CHEMBL5608239, “Structure, Function, and Activity of Small Molecule and Peptide Inhibitors of Protein Arginine Methyltransferase 1” (J Med Chem, 2024).
pIC50: −log10 of the molar value. Each block holds one compound with its values, some of them ahead of it. Numbered stars: 1 amine (or outer) side, 2 acyl side, 3 side chain; on linkers, the order of the positions; unused ones are H or OH. Square brackets hold non-standard residues; d marks the D form. Peptide text beside a SMILES is read from it. X1 = N=C(NCCC[C@H](N[*:1])C(=O)[*:2])NCCC[C@H]1O[C@@H](n2cnc3c(N)ncnc32)[C@H](O)[C@@H]1O

How the values were obtained:
[1] = molecular target: T1, Protein arginine N-methyltransferase 1 (Homo sapiens, UniProt Q99873); test: Inhibition of 6His-tagged human recombinant PRMT1 using Histone H4 as substrate
[2] = molecular target: T1, Protein arginine N-methyltransferase 1
[3] = molecular target: T1, Protein arginine N-methyltransferase 1; test: Inhibition of PRMT1 (unknown origin) using Histone H4 as substrate incubated for 1 hr by fluorescence based analysis
[4] = molecular target: T1, Protein arginine N-methyltransferase 1; test: Inhibition of human PRMT1 using [3H]methylated biotin-labeled peptide as substrate by scintillation proximity assay

T1 sequence (Q99873 whole entry): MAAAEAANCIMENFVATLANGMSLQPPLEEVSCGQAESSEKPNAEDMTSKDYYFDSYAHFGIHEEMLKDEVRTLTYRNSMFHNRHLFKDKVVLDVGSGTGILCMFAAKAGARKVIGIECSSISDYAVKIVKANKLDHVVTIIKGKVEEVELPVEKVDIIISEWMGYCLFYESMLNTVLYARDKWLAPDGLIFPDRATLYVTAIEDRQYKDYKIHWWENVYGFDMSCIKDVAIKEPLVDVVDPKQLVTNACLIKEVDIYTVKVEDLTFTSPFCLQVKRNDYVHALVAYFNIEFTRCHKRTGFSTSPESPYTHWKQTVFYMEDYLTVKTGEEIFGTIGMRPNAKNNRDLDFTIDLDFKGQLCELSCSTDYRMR

pIC50 [1]: < 3.30
SMILES: C[C@@H](O)[C@H](NC(=O)CNC(=O)CNC(=O)[C@H](CCCNC(=N)NCCC[C@H](N)C(=O)O)NC(=O)[C@H](CO)NC(=O)[C@@H](NC(=O)CNC(=O)CNC(=O)[C@@H](N)Cc1c[nH]c2ccccc12)[C@@H](C)O)C(=O)NCC(=O)NCC(=O)N[C@@H](Cc1c[nH]c2ccccc12)C(=O)O

SMILES: N=C(NCCCCC(N)C(N)=O)NCCCSC[C@H]1O[C@@H](n2cnc3c(N)ncnc32)[C@H](O)[C@@H]1O (some centres undefined)
pIC50 [2]: 5.52 | pIC50 [3]: 5.52

pIC50 [4]: 5.88
SMILES: CC(=O)N[C@@H](CO)C(=O)NCC(=O)N[C@@H](CCCNC(=N)NCCC[C@H]1O[C@@H](n2cnc3c(N)ncnc32)[C@H](O)[C@@H]1O)C(=O)NCC(=O)N[C@@H](CCCCN)C(=O)NCC(=O)NCC(=O)N[C@@H](CCCCN)C(N)=O (Ac-SG[X1]GKGGK-NH2)
